Format in all cases: cell-based
The test system of one experiment is Atg8 gene. The experiment in a line: Anti-aging gene expression test in human fibroblasts (qPCR), Atg8 gene. Conditions: 25 μg synthesized peptide per 1 ml medium, human fibroblasts (CCD-966SK), 24 h, 37° C. The procedure:
(§1) In order to confirm the effect of each of the amino acid sequences on gene expression in cells, human fibroblasts (CCD-966SK) and individual synthesized peptides were co-cultured, and then, gene expression in the cells was analyzed. 6 types of synthesized peptides were respectively subjected to cell experiments. In addition, the amino acid sequences of 6 types of synthesized peptides were respectively SEQ ID NO: 1, SEQ ID NO: 2, SEQ ID NO: 3, SEQ ID NO: 4, SEQ ID NO: 5 and SEQ ID NO: 6. The sequence numbers SEQ ID NO: 1 to SEQ ID NO: 6 will be referred to as groups. […]
(§2) For peptide experiment groups (corresponding to Experiment group A to Experiment group F), according to a proportion of 25 μg of synthesized peptide per 1 ml of cell culture medium, the human fibroblasts were cultured for 24 h at 37° C. […] In addition, the primers firstly reacted by a green fluorescent dye of SYBR green dye (Applied Biosystem), and quantification of gene expression was performed by a 2-ΔΔCt method. It should be noted that the gene expression in the drawings was shown in relative fold, ratio or percentage, where standard deviations were calculated by an STDEV formula of Excel software, and statistically significant differences were analyzed by one-tailed student t-test in the Excel software. […]

For the next experiment, the system named is CCT2 gene. The experiment in a line: Anti-aging gene expression test in human fibroblasts (qPCR), CCT2 gene. To be noted: 25 μg synthesized peptide per 1 ml medium, human fibroblasts (CCD-966SK), 24 h, 37° C. The procedure:
as §1, §2

A further experiment deals with CCT5 gene. The experiment is described as follows: Anti-aging gene expression test in human fibroblasts (qPCR), CCT5 gene. Conditions: 25 μg synthesized peptide per 1 ml medium, human fibroblasts (CCD-966SK), 24 h, 37° C. The protocol:
as §1, §2
For orientation: Real-time PCR tracks product formation cycle by cycle.

The subject of a further experiment is CCT6A gene. The experiment is described as follows: Anti-aging gene expression test in human fibroblasts (qPCR), CCT6A gene. Conditions: 25 μg synthesized peptide per 1 ml medium, human fibroblasts (CCD-966SK), 24 h, 37° C. The procedure: as §1, §2
Another experiment relates to CCT7 gene. The experiment is described as follows: Anti-aging gene expression test in human fibroblasts (qPCR), CCT7 gene. To be noted: 25 μg synthesized peptide per 1 ml medium, human fibroblasts (CCD-966SK), 24 h, 37° C. The protocol: as §1, §2
Another experiment has as its system CCT8 gene. The experiment in a line: Anti-aging gene expression test in human fibroblasts (qPCR), CCT8 gene. To be noted: 25 μg synthesized peptide per 1 ml medium, human fibroblasts (CCD-966SK), 24 h, 37° C. The procedure:
as §1, §2

For a further experiment, the system named is Pink1 gene. The experiment in a line: Anti-aging gene expression test in human fibroblasts (qPCR), Pink1 gene. Conditions: 25 μg synthesized peptide per 1 ml medium, human fibroblasts (CCD-966SK), 24 h, 37° C. The procedure: as §1, §2
The subject of a further experiment is SIRT1 gene. The experiment is described as follows: Anti-aging gene expression test in human fibroblasts (qPCR), SIRT1 gene. To be noted: 25 μg synthesized peptide per 1 ml medium, human fibroblasts (CCD-966SK), 24 h, 37° C. The protocol: as §1, §2
In a further experiment the test system is Ubl-5 gene. The experiment is described as follows: Anti-aging gene expression test in human fibroblasts (qPCR), Ubl-5 gene. To be noted: 25 μg synthesized peptide per 1 ml medium, human fibroblasts (CCD-966SK), 24 h, 37° C. The procedure: as §1, §2
Experiment [1] relates to mitochondria activities of human fibroblasts (CCD-966SK). The experiment in a line: Mitochondria activity test (JC-1 membrane potential, flow cytometry). Conditions: 24 h, 37° C. The protocol:
Then, in order to confirm the effect of each of the amino acid sequences on mitochondria activities, human fibroblasts (CCD-966SK) and the individual peptides were co-cultured, and then, the mitochondrion activities was analyzed. 6 types of synthesized peptides were respectively subjected to mitochondria activity tests. In addition, the amino acid sequences of 6 types of synthesized peptides were respectively SEQ ID NO: 1, SEQ ID NO: 2, SEQ ID NO: 3, SEQ ID NO: 4, SEQ ID NO: 5 and SEQ ID NO: 6. The sequence numbers SEQ ID NO: 1 to SEQ ID NO: 6 will be referred to as groups.
For mitochondria activity tests, after human fibroblasts and samples to be tested (such as peptides or compositions) were co-cultured, then, co-cultured cells were treated by a mitochondria membrane potential detection kit (containing a JC-1 mitochondria coloring agent, purchased from BD). Mitochondria activity test groups were divided into 7 groups.
Firstly, each of the groups (Experiment group H to Experiment group M, and Control group) was co-cultured with 1×10^5 human fibroblasts in a cell culture plate containing 2 ml of cell culture medium (X-VIVO™ 10). Then, the samples to be tested for each of the group were added into corresponding culture plates according to Table 6, and were co-cultured with the human fibroblasts at 37° C. for 24 h. Control group was co-cultured for 24 h by a peptide-free culture medium under the same conditions.
Before the mitochondria activity test was performed, a JC-1 mitochondria coloring agent was prepared. Firstly, a 10× JC-1 buffer solution was preheated at 37° C., was then diluted into a 1× JC-1 buffer solution by a 1× phosphate buffer solution (PBS, purchased from Gibco), and was maintained at 37° C. after being uniformly mixed. 130 μl of dimethyl sulfoxide (DMSO) was added into a lyophilized JC-1 reagent to prepare a JC-1 stock solution. Then, the JC-1 stock solution was diluted 1000 folds by the 1× JC-1 buffer solution to prepare a JC-1 work solution.
After co-culture for 24 h, the cell culture medium in the culture plate was removed. The co-cultured cells were rinsed twice by PBS so as to remove the residual cell culture medium. The cells were trypsinized from the culture plate, and were collected into a 1.5 ml microcentrifuge tube to be centrifuged for 5 min at 400×g so as to form a primary supernatant and a primary cell precipitate. After the primary supernatant was removed, the primary cell precipitate was resuspended by PBS to form a primary cell solution. The primary cell solution was transferred into a 1.5 ml centrifuge tube to be centrifuged for 5 min at 400×g again so as to separate the primary cell solution into a secondary supernatant and a secondary cell precipitate. Then, after the secondary supernatant was removed, 100 μl of JC-1 work solution was added to the secondary cell precipitate and vortexed to form a secondary cell solution. The secondary cell solution was cultured in dark at a room temperature for 15 min.
After cultured dark, the secondary cell solution was centrifuged for 5 min at 400×g. […] Standard deviations of the results were calculated by an STDEV formula of Excel software, and statistically significant differences were analyzed by one-tailed student t-test in the Excel software. […]
On the technique in general: A flow cytometer gives signals particle by particle.

On to “DKPLIPEGP (listed as Pangasius bocourti) [SEQ ID NO: 5, synthesized peptide of Basa skin; Titin, tandem duplicate 2]”, for which the “fold of upregulation of Atg8 gene expression vs Control group” value in the experiment with Atg8 gene turned out to be 5.13 folds. In addition, the “fold of upregulation of CCT2 gene expression vs Control group” value in the experiment on CCT2 gene amounted to 5.86 folds. In addition, in the experiment on CCT5 gene, the “fold of upregulation of CCT5 gene expression vs Control group” value is recorded as 6.03 folds. Besides, the “fold of upregulation of CCT6A gene expression vs Control group” value in the experiment with CCT6A gene is on record as 5.47 folds. Besides, the “fold of upregulation of CCT7 gene expression vs Control group” value in the experiment with CCT7 gene is on record as 7.92 folds. For the same sequence, the “fold of upregulation of CCT8 gene expression vs Control group” value in the experiment on CCT8 gene was determined as 6.88 folds. Also, the “fold of upregulation of Pink1 gene expression vs Control group” value with Pink1 gene is 5.85 folds. The “fold of upregulation of SIRT1 gene expression vs Control group” value in the experiment with SIRT1 gene was 6.62 folds. Further, the “fold of upregulation of Ubl-5 gene expression vs Control group” value in the experiment with Ubl-5 gene was 5.24 folds. Moreover, the “improvement of mitochondria activities as compared with Control group” value (shortened to “improvement … compared with Control group”) in [1] (10 μg peptide in 2 ml medium) is recorded as 26.7%.

Consider “GPLGPIGPPGLP (listed as Pangasius bocourti) [SEQ ID NO: 6, synthesized peptide of Basa skin; Procollagen, type V, alpha I]”, for which the “fold of upregulation of Atg8 gene expression vs Control group” value with Atg8 gene stood at 4.28 folds. The “fold of upregulation of CCT2 gene expression vs Control group” value with CCT2 gene is 5.71 folds. In the experiment on CCT5 gene, the “fold of upregulation of CCT5 gene expression vs Control group” value is 6.76 folds. Besides, the “fold of upregulation of CCT6A gene expression vs Control group” value in the experiment with CCT6A gene was 5.28 folds. For the same sequence, the “fold of upregulation of CCT7 gene expression vs Control group” value in the experiment with CCT7 gene was 7.89 folds. Further, the “fold of upregulation of CCT8 gene expression vs Control group” value in the experiment with CCT8 gene came to 6.43 folds. Also, the “fold of upregulation of Pink1 gene expression vs Control group” value with Pink1 gene worked out at 6.42 folds. For the same sequence, the “fold of upregulation of SIRT1 gene expression vs Control group” value in the experiment with SIRT1 gene is listed as 6.52 folds. Moreover, the “fold of upregulation of Ubl-5 gene expression vs Control group” value in the experiment on Ubl-5 gene came to 5.16 folds. For the same sequence, the “improvement … compared with Control group” value in experiment [1] (25 μg peptide in 2 ml medium) was determined as 68.9%.

On to “NPGPHGQPGPPGP (listed as Pangasius bocourti) [SEQ ID NO: 4, synthesized peptide of Basa skin; Persistent plexus]”, for which the “improvement … compared with Control group” value in experiment [1] (10 μg peptide in 2 ml medium) was found to be 32.9%.

For “PGAPGSSGPKG (listed as Pangasius bocourti) [SEQ ID NO: 2, synthesized peptide of Basa skin; collagen, type XIV]”, the “improvement … compared with Control group” value in experiment [1] (10 μg peptide in 2 ml medium) was found to be 32.7%.

On to “VAEGAQGNIGPA (listed as Pangasius bocourti) [SEQ ID NO: 3, synthesized peptide of Basa skin; Kinesin family member 21B]”, for which the “improvement … compared with Control group” value in experiment [1] (10 μg peptide in 2 ml medium) is listed as 25.6%.

Values taken from US11471395B2, “Method for preventing aging with bioactive compound” (TCI CO., LTD., priority 2020, dated 2022).
